ChEMBL document CHEMBL1141955, “Geometric diversity through permutation of backbone configuration in cyclic peptide libraries” (Bioorg Med Chem Lett, 2005)

Molecular target: Actin, cytoplasmic 1 (Xenopus laevis, UniProt O93400)
Assay: Inhibitory activity against actin assembly in xenopus by polymerisation assay; call rule not given here

| Compound | IC50 | IC50 (read-out: IC50) |
| --- | --- | --- |
| NCCCC[C@@H]1NC(=O)[C@H](CCC(N)=O)NC(=O)[C@H]2CCCN2C(=O)[C@H](Cc2ccccc2)NC(=O)[C@@H](Cc2ccccc2)NC(=O)[C@H]2CCCN2C(=O)[C@@H](Cc2ccccc2)NC1=O | Not Active |  |
| NCCCC[C@@H]1NC(=O)[C@H](CCC(N)=O)NC(=O)[C@H]2CCCN2C(=O)[C@H](Cc2ccccc2)NC(=O)[C@@H](Cc2ccccc2)NC(=O)[C@H]2CCCN2C(=O)[C@@H](Cc2ccccc2)NC(=O)[C@H](CCCCN)NC(=O)[C@H](CCC(N)=O)NC(=O)[C@H]2CCCN2C(=O)[C@H](Cc2ccccc2)NC(=O)[C@@H](Cc2ccccc2)NC(=O)[C@H]2CCCN2C(=O)[C@@H](Cc2ccccc2)NC1=O |  | 2000 nM |
